From the CheMixHub viscosity set

Test: xn = mol fraction of the nth substance listed

CCCCCCCCO + CCCCCC
298.15 K, 101.33 kPa
Conditions | viscosity [mPa·s]
x2 = 0.1657 | 4.313
x2 = 0.2119 | 3.677
x2 = 0.274 | 2.968
x2 = 0.3717 | 2.093
x2 = 0.4775 | 1.432
x2 = 0.5556 | 1.096
x2 = 0.6659 | 0.759
x2 = 0.7638 | 0.559
x2 = 0.8406 | 0.443
x2 = 0.9211 | 0.35
x2 = 0.9597 | 0.319

C=Cc1ccccc1 + CCCCCCC
viscosity [mPa·s], 101.33 kPa
Conditions | x1 = 0.1018 | x1 = 0.202 | x1 = 0.2988 | x1 = 0.3984 | x1 = 0.4989 | x1 = 0.5997 | x1 = 0.6992 | x1 = 0.8006 | x1 = 0.8979
298.15 K | 0.398 | 0.412 | 0.427 | 0.448 | 0.471 | 0.5 | 0.536 | 0.581 | 0.638
303.15 K | 0.379 | 0.393 | 0.406 | 0.425 | 0.445 | 0.473 | 0.508 | 0.55 | 0.599
308.15 K | 0.36 | 0.372 | 0.386 | 0.405 | 0.423 | 0.45 | 0.481 | 0.519 | 0.565

CCCCCCCCO + CCCCCCC
viscosity [mPa·s], 101.33 kPa
Conditions | 298.15 K | 308.15 K
x1 = 0.0448 | 0.4411 | 0.3932
x1 = 0.0922 | 0.4999 | 0.4375
x1 = 0.1826 | 0.6375 | 0.5457
x1 = 0.278 | 0.8198 | 0.6942
x1 = 0.3705 | 1.072 | 0.8964
x1 = 0.469 | 1.464 | 1.149
x1 = 0.5664 | 1.902 | 1.594
x1 = 0.6697 | 2.7 | 2.213
x1 = 0.7784 | 3.885 | 3.021
x1 = 0.8336 | 4.545 | 3.466
x1 = 0.8844 | 5.124 | 3.885
x1 = 0.9381 | 6.024 | 4.399

BrC(Br)Br + CCCCCCC(C)O
viscosity [mPa·s], 101.3 kPa
Conditions | x1 = 0.104 | x1 = 0.199 | x1 = 0.3 | x1 = 0.403 | x1 = 0.502 | x1 = 0.603 | x1 = 0.704 | x1 = 0.801 | x1 = 0.899
298.15 K | 5.244 | 4.606 | 3.91 | 3.391 | 2.965 | 2.623 | 2.337 | 2.123 | 1.969
303.15 K | 4.336 | 3.855 | 3.348 | 2.937 | 2.594 | 2.335 | 2.104 | 1.943 | 1.83
308.15 K | 3.625 | 3.274 | 2.894 | 2.566 | 2.288 | 2.084 | 1.913 | 1.785 | 1.698
